Active and inactive are the calls of the source. No cut-off for these calls is given here.
Key:
[1] = molecular target: Histone deacetylase 1 (Homo sapiens) (UniProt Q13547); experiment: Inhibition of HDAC1 (unknown origin) expressed in Escherichia coli BL21 (DE3) using GRKacFGC as substrate at 10 uM after 60 mins by SAMDI mass spectrometric analysis relative to control
Vero = experiment: Cytotoxicity against African green monkey Vero cells assessed as growth inhibition after 72 hrs by MTS assay; assay type: cell-based; settings: Chlorocebus sabaeus
[2] = molecular target: Matrix metalloproteinase-14 (Homo sapiens) (UniProt P50281); experiment: Inhibition of MMP-14 (unknown origin) using omniMMP as fluorogenic substrate at 10 uM preincubated for 30 mins followed by substrate addition measured after 30 mins by fluorescence assay
DU-145 = experiment: cells; assay type: functional, cell-based; settings: Homo sapiens, DU-145, 72 h
Description: Cytotoxicity against androgen-independent human DU145 cells assessed as growth inhibition after 72 hrs by MTS assay

[3] = molecular target: 72 kDa type IV collagenase (Homo sapiens) (UniProt P08253); experiment: Inhibition of MMP-2 (unknown origin) using omniMMP as fluorogenic substrate at 10 uM preincubated for 30 mins followed by substrate addition measured after 30 mins by fluorescence assay
72 kDa type IV collagenase (Homo sapiens), sequence (P08253 110-660 limits assumed): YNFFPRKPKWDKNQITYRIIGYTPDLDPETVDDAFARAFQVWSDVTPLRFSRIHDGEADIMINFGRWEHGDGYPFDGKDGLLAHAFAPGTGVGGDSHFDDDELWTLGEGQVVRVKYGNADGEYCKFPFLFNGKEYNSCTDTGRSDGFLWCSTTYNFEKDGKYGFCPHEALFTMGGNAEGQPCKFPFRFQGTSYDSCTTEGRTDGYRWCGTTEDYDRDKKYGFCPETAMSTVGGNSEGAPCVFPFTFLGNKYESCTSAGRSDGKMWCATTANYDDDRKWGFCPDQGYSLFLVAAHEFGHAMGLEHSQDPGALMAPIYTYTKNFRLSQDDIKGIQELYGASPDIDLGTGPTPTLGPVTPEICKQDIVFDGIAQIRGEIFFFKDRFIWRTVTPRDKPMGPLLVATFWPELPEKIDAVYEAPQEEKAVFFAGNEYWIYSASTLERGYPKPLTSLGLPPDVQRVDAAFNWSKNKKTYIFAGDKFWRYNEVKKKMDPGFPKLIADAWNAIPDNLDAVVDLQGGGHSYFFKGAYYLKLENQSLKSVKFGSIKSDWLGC

[4] = molecular target: T1, Interstitial collagenase (Homo sapiens) (UniProt P03956); experiment: Inhibition of MMP-1 (unknown origin) using omniMMP as fluorogenic substrate at 10 uM preincubated for 30 mins followed by substrate addition measured after 30 mins by fluorescence assay
T1 sequence (whole entry): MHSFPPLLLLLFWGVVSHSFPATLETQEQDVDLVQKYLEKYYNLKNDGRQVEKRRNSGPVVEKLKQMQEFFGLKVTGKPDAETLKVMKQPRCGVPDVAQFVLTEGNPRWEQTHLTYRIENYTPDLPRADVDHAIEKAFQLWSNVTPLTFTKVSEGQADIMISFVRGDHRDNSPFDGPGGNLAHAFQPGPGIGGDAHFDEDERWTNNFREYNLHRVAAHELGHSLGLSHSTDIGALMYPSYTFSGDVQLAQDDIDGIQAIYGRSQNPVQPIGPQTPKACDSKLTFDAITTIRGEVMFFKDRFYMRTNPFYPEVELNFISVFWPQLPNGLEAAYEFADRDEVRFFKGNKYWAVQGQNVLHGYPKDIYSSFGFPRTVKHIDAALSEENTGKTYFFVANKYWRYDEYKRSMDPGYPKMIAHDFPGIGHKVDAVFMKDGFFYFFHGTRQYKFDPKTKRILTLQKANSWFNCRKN

[5] = molecular target: Matrix metalloproteinase-9 (Homo sapiens) (UniProt P14780); experiment: Inhibition of MMP-9 (unknown origin) using omniMMP as fluorogenic substrate at 10 uM preincubated for 30 mins followed by substrate addition measured after 30 mins by fluorescence assay
Matrix metalloproteinase-9 (Homo sapiens), sequence (P14780 whole entry): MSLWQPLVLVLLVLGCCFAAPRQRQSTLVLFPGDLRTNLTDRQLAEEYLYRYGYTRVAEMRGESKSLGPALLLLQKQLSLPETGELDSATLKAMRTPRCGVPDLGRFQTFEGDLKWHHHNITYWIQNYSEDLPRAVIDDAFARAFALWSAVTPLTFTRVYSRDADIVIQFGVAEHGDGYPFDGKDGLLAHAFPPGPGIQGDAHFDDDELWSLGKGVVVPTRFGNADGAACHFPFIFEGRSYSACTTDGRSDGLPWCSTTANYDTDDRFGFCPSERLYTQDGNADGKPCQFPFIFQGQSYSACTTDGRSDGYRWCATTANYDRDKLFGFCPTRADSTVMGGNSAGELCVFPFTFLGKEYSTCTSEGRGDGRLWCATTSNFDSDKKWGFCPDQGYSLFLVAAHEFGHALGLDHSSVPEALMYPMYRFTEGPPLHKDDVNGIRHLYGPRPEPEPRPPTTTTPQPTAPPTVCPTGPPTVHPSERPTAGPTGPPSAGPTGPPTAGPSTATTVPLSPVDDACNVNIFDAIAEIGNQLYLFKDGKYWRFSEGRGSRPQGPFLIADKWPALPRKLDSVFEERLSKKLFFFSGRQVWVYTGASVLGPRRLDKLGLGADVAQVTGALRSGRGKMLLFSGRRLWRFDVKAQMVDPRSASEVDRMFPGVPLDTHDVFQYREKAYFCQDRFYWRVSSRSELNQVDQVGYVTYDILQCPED

Histone deacetylase 2 = Histone deacetylase 2 (Homo sapiens, UniProt Q92769); experiment: Inhibition of HDAC2 (unknown origin) expressed in Escherichia coli BL21 (DE3) using GRKacYGC as substrate after 60 mins by SAMDI mass spectrometric analysis
Histone deacetylase 2, sequence (Q92769 whole entry): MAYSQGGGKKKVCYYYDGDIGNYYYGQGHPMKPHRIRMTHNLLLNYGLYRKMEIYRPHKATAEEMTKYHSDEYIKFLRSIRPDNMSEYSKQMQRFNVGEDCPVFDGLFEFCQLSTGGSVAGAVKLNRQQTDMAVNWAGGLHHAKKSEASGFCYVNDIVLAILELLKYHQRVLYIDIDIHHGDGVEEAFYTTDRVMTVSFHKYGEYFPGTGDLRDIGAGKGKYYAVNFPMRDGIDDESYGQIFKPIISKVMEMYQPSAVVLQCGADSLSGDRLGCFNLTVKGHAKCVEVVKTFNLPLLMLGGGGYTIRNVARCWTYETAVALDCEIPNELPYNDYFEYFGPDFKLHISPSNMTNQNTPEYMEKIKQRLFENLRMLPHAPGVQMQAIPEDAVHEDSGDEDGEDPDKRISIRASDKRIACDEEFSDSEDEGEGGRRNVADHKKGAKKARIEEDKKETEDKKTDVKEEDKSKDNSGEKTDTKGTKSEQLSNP

LNCaP [6] = experiment: cells; settings: Homo sapiens, 72 h
Description: Cytotoxicity against androgen-dependent human LNCAP cells assessed as growth inhibition after 72 hrs by MTS assay

[7] = molecular target: Stromelysin-1 (Homo sapiens) (UniProt P08254); experiment: Inhibition of MMP-3 (unknown origin) using omniMMP as fluorogenic substrate at 10 uM preincubated for 30 mins followed by substrate addition measured after 30 mins by fluorescence assay
Stromelysin-1 (Homo sapiens), sequence (P08254 100-477 limits assumed): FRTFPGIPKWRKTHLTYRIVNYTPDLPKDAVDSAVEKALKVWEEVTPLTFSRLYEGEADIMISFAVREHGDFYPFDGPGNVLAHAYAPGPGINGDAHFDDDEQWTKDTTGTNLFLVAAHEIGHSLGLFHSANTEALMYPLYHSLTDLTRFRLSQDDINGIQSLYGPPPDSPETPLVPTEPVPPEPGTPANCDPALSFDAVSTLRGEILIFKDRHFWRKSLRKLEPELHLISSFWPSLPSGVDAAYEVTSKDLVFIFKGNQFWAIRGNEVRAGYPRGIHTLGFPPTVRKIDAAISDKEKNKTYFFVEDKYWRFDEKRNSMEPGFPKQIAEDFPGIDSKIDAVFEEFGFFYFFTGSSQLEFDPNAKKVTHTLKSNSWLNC

[8] = molecular target: Collagenase 3 (Homo sapiens) (UniProt P45452); experiment: Inhibition of MMP-13 (unknown origin) using omniMMP as fluorogenic substrate at 10 uM preincubated for 30 mins followed by substrate addition measured after 30 mins by fluorescence assay
[9] = molecular target: T2, Matrilysin (Homo sapiens) (UniProt P09237); experiment: Inhibition of MMP-7 (unknown origin) using omniMMP as fluorogenic substrate at 10 uM preincubated for 30 mins followed by substrate addition measured after 30 mins by fluorescence assay
T2 sequence (whole entry): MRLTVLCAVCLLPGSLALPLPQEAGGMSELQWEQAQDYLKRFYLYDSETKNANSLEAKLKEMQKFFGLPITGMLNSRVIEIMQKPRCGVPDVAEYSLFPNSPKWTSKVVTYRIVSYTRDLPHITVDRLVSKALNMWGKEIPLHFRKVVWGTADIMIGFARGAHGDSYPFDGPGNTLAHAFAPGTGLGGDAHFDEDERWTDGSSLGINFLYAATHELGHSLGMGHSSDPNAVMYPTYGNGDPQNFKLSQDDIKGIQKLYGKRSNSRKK

[10] = molecular target: T3, Protein deacetylase HDAC6 (Homo sapiens) (UniProt Q9UBN7); experiment: Inhibition of HDAC6 in human LNCAP cells assessed as increase in tubulin acetylation at 3.49 to 20 uM after 4 hrs by Western blotting analysis; assay type: cell-based
T3 sequence (whole entry): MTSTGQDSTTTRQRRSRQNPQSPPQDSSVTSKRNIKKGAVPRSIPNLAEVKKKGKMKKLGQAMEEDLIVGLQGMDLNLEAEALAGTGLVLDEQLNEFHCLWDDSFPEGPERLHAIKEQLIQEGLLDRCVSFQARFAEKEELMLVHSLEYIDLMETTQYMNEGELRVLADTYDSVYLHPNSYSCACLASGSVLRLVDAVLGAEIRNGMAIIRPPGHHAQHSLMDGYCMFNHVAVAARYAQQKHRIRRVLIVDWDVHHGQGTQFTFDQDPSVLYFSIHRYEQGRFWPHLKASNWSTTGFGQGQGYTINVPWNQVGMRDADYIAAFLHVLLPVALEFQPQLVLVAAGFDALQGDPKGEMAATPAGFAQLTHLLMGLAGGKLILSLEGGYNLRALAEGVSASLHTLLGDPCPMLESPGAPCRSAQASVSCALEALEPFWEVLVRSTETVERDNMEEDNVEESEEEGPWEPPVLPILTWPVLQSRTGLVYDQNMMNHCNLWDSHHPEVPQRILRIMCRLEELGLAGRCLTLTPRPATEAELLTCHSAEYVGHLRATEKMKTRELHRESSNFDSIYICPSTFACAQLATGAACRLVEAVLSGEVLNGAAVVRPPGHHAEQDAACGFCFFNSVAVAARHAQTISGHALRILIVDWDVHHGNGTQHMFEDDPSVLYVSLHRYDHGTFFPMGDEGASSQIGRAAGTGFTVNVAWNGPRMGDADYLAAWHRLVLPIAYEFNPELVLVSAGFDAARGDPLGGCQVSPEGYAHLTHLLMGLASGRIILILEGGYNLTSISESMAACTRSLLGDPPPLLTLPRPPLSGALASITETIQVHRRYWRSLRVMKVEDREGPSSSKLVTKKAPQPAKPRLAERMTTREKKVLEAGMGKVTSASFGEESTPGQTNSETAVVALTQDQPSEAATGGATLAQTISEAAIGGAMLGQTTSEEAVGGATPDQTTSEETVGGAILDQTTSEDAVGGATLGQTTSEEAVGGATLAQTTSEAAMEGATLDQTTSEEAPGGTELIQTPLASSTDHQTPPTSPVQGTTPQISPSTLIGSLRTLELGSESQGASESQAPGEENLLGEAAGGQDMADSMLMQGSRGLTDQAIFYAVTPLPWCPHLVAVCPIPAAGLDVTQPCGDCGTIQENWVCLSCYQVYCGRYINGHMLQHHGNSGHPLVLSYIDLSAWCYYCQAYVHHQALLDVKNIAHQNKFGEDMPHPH

[11] = Aqueous solubility of the compound […] at room temperature by UV-vis spectrophotometric analysis; assay type: physicochemical
Jurkat = experiment: cells; assay type: functional, cell-based; settings: Homo sapiens, 72 h
Description: Cytotoxicity against human Jurkat cells assessed as growth inhibition after 72 hrs by MTS assay

[12] = Cytotoxicity against human Jurkat gamma1 cells assessed as growth inhibition after 72 hrs by MTS assay; assay type: functional, cell-based
LNCaP [13] = experiment: Potency index, ratio of tubastatin A IC50 to compound IC50 for human LNCAP cells; assay type: functional
[14] = molecular target: T3, Protein deacetylase HDAC6 (Homo sapiens); experiment: Inhibition of HDAC6 in human LNCAP cells assessed as increase in tubulin acetylation at 5.43 to 20 uM after 4 hrs by Western blotting analysis; assay type: cell-based
[15] = molecular target: T4, Protein deacetylase HDAC6 (Homo sapiens, UniProt Q9UBN7); experiment: Inhibition of HDAC6 (unknown origin) expressed in Escherichia coli BL21 (DE3) using GRKacYGC as substrate after 60 mins by SAMDI mass spectrometric analysis
T4 sequence (Q9UBN7 whole entry): T3 sequence (whole entry)

Histone deacetylase 8 = molecular target: T5, Histone deacetylase 8 (Homo sapiens, UniProt Q9BY41); experiment: Inhibition of HDAC8 catalytic domain (unknown origin) expressed in Escherichia coli BL21 (DE3) using GRKacFGC as substrate after 60 mins by SAMDI mass spectrometric analysis
T5 sequence (Q9BY41 whole entry): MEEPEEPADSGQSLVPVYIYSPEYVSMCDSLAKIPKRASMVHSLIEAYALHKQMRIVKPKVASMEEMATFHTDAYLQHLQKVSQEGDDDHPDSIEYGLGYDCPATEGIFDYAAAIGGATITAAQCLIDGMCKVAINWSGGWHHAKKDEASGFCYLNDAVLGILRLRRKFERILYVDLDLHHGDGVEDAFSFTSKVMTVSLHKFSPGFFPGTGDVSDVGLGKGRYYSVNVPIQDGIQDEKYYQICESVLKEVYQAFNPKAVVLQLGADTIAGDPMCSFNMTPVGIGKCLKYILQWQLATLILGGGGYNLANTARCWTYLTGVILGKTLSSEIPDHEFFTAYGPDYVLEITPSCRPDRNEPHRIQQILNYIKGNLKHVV

Histone deacetylase 1 (Homo sapiens), sequence (Q13547 whole entry): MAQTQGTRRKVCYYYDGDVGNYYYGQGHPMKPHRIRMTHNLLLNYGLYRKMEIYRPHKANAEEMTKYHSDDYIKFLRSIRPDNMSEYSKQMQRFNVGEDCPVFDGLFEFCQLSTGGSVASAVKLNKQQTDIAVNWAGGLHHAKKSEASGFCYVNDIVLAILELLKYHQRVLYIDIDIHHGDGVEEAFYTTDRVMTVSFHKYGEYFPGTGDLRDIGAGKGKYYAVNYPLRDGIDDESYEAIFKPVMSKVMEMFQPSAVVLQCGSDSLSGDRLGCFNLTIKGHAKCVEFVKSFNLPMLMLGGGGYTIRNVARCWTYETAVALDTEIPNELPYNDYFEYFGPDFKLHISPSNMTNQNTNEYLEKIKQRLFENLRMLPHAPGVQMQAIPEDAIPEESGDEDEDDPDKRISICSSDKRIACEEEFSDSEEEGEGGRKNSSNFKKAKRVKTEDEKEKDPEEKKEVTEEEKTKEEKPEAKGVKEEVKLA

Row | inhibition [1] [%] | inhibition [2] | IC50 (DU-145) [µM] | inhibition [3] | inhibition [4] | inhibition [5] | IC50 (Histone deacetylase 2) [µM] | IC50 (LNCaP [6]) [µM] | inhibition [7] | inhibition [8] | inhibition [9] | inhibition [10] | solubility [11] | IC50 (Jurkat) [µM] | inhibition [14] | IC50 [15] [µM] | IC50 (Histone deacetylase 8) [µM] | SMILES | IC50 (Vero) [µM] | IC50 [12] [µM] | Ratio IC50 (LNCaP [13])
1 | < 20 | inactive | 5.03 | inactive | inactive | inactive | 3.68 | 3.49 | inactive | Active | inactive | Active | soluble | 3.44 |  |  |  | N#Cc1cccc(-c2cn(CCCCCn3cccc(O)c3=S)nn2)c1 | > 20 | 0.9 | 3.1
2 | < 20 | inactive | 9.33 | inactive | inactive | inactive | 5.84 | 5.43 | inactive | Active | inactive |  | soluble | 3.27 | Active | 0.911 | 0.917 | Oc1cccn(CCCCCn2cc(-c3ccccc3)nn2)c1=S | > 20 | 1.86 | 2

From ChEMBL document CHEMBL3108745, “Synthesis and structure-activity relationship of 3-hydroxypyridine-2-thione-based histone deacetylase inhibitors” (J Med Chem, 2013)
